As a reminder, the IC50 is the concentration that inhibits the measured activity by half. Read a low IC50 as inhibition by little substance. For orientation: inhibition means the share of the control response that was lost under treatment. A lower inhibition goes with little suppression.

This note sets out measurements from ChEMBL document CHEMBL1132548, “Exploring the structure-activity relationships of [1-(4-tert-butyl-3'-hydroxy)benzhydryl-4-benzylpiperazine] (SL-3111), a high-affinity and selective delta-opioid receptor nonpeptide agonist ligand” (J Med Chem, 1999).

The target in assay [1] is Mu-type opioid receptor (Rattus norvegicus, UniProt P33535). The assay can be described thus: In vitro inhibition of [3H]DAMGO (Tyr-D-Ala-Gly-(Me)-Phe-Gly-ol) binding to Opioid receptor mu 1 using rat brain membranes. In kind it is cell membranes, Membrane.
Mu-type opioid receptor (Rattus norvegicus, UniProt P33535), sequence (P33535 whole entry): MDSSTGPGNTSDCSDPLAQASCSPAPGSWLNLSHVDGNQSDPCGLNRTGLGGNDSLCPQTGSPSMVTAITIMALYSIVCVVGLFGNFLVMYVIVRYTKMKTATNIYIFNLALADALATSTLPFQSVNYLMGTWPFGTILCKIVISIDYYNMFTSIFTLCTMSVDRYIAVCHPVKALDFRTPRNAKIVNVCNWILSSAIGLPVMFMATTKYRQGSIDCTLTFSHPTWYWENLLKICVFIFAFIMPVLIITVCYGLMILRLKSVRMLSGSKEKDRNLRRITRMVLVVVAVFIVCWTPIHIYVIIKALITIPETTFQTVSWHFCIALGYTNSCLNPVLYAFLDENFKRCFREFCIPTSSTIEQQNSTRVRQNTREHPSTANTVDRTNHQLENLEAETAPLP
Assay [2] concerns the target T1, Delta-type opioid receptor (Rattus norvegicus, UniProt P33533). In words: In vitro inhibition of [3H]deltorphin binding to Opioid receptor delta 1 using rat brain membranes. The format is cell membranes, Membrane.
Assay [3] concerns the target T1, Delta-type opioid receptor. The assay can be described thus: In vitro inhibition of [3H]- [p-Cl-Phe4]DPDPE binding to Opioid receptor delta 1 using rat brain membranes. The format is cell membranes, Membrane.
Assay [4] addresses Mu-type opioid receptor (Mus musculus) (UniProt P42866). Conditions: Vas deferens; 1 uM.
Description: Agonist activity using electrically induced smooth muscle contraction of mouse vas deferens at 1 uM
Assay [5] has as its target Mu-type opioid receptor (Homo sapiens) (UniProt P35372). The assay can be described thus: Agonist activity using strips of guinea pig ileum longitudinal muscle myenteric plexus at 30 uM. The format is functional, tissue-based.
Assay [6] concerns the target Mu-type opioid receptor (Cavia porcellus, UniProt P97266). In words: Agonist activity using strips of guinea pig ileum longitudinal muscle myenteric plexus. In kind it is functional, tissue-based.
The target of assay [7] is Mu-type opioid receptor (Mus musculus, UniProt P42866). The assay can be described thus: Agonist activity using electrically induced smooth muscle contraction of mouse vas deferens. In kind it is functional.
Mu-type opioid receptor (Mus musculus, UniProt P42866), sequence (P42866 whole entry): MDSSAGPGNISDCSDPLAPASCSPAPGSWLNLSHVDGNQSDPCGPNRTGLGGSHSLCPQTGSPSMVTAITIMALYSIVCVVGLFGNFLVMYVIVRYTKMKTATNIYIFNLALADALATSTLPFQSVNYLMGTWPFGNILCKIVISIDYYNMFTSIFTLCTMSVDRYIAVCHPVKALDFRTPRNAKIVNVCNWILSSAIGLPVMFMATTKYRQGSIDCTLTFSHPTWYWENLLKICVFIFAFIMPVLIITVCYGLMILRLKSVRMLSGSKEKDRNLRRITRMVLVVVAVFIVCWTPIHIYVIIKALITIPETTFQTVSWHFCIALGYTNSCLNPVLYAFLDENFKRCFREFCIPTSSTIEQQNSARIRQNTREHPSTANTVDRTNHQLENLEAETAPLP
In assay [8] the target is Mu-type opioid receptor (Mus musculus) (UniProt P42866). The assay can be described thus: Agonist activity using electrically induced smooth muscle contraction of mouse vas deferens at 30 uM. The format is functional, tissue-based.
Mu-type opioid receptor (Mus musculus), sequence (P42866 whole entry): as above
In assay [9] the target is Mu-type opioid receptor (Cavia porcellus) (UniProt P97266). The assay can be described thus: Agonist activity using strips of guinea pig ileum longitudinal muscle myenteric plexus at 10 uM. In kind it is functional, tissue-based.
Mu-type opioid receptor (Cavia porcellus), sequence (P97266 whole entry): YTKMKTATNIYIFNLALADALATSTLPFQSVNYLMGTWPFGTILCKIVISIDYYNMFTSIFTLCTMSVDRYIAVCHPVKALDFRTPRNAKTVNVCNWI
Assay [10] has as its target Mu-type opioid receptor (Homo sapiens) (UniProt P35372). Conditions: guinea pig; Ileum; at 10 µM.

T1 sequence (P33533 whole entry): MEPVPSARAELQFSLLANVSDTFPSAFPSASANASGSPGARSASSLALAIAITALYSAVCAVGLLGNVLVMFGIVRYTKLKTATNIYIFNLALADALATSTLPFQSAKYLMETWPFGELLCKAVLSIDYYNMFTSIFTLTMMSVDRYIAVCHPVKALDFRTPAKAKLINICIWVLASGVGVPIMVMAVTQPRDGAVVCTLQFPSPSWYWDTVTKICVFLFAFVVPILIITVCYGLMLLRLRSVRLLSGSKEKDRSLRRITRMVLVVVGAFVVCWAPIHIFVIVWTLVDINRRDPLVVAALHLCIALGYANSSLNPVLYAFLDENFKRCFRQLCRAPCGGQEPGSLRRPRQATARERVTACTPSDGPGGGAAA
Mu-type opioid receptor (Homo sapiens), sequence (P35372 whole entry): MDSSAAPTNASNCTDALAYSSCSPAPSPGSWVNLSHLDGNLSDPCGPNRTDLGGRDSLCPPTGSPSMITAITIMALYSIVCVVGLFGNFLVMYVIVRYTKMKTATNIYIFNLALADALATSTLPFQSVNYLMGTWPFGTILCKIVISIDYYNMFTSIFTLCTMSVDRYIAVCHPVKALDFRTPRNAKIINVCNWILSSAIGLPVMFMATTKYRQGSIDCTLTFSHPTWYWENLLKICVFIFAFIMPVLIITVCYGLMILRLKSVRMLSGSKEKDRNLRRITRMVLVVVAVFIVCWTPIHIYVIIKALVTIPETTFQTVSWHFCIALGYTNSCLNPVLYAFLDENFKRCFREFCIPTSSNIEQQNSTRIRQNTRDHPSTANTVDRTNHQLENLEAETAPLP
Mu-type opioid receptor (Cavia porcellus, UniProt P97266), sequence (P97266 whole entry): as the sequence (P97266 whole entry) above

As to `CC(C)(C)c1ccc(C(c2cccc(O)c2)N2CCN(Cc3ccccc3)C[C@@H]2Cc2ccccc2)cc1` (stereo in doubt; 15c2), the IC50 at Mu-type opioid receptor [1] amounted to 46.3 µM; in assay [2], 21.3 µM.
The like results for `CC(C)(C)c1ccc(C(c2cccc(O)c2)N2CCC(Cc3ccccc3)CC2)cc1` (stereo not drawn) were, in that order, 22.9 µM and 12.6 µM.
`CC(C)(C)c1ccc(C(c2cccc(O)c2)N2CCN(Cc3ccccc3)C[C@@H]2Cc2ccccc2)cc1` (stereo in doubt; 15c1) [listing 1 of 2 here]: the IC50 on Mu-type opioid receptor [1] is more than 80 µM; in [2], more than 10 µM.
For `O=C(OCc1ccc(O)cc1)N1CSC(=S)N(Cc2ccccc2)C1`, the IC50 in [3] is 44.7 µM; on Mu-type opioid receptor [1] it was 38.3 µM.
With `CC(C)(C)c1ccc(C(c2cccc(O)c2)N2CCN(Cc3ccccc3)C[C@@H]2Cc2ccccc2)cc1` (stereo in doubt; 15c1) [listing 2 of 2 here], the figures for the inhibition in assay [4] and in [5] were 10% and 0%, respectively.
For the compound `S=C1SCN(Cc2ccccc2)CN1Cc1ccccc1` [SULBENTINE], the IC50 in assay [3] was 28.6 µM; at Mu-type opioid receptor [1], 27.9 µM.
On to `CC(C)(C)c1ccc(C(c2cccc(O)c2)C2CCN(Cc3ccccc3)CC2)cc1` (stereo not drawn), for which the IC50 at Mu-type opioid receptor [1] was 4.3 µM; in [2] it was 0.033 µM; at Mu-type opioid receptor [6] it was 15.6 µM; at Mu-type opioid receptor [7], 0.39 µM.
Take `CC(C)(C)c1ccc(C(c2cccc(O)c2)N2CCN(Cc3ccccc3)C[C@@H]2COCc2ccccc2)cc1` (stereo partly drawn): the values for the IC50 (at Mu-type opioid receptor [1]; in assay [2]) were 26 µM and 0.038 µM, respectively. In addition, the inhibition in assay [8] was found to be 44%; in assay [9], 0%.
As to `CC(C)(C)c1ccc(C(c2cccc(O)c2)N2CCN(Cc3ccccc3)C[C@@H]2CO)cc1` (stereo partly drawn), the IC50 amounted to 7.98 µM on Mu-type opioid receptor [1], 0.038 µM in assay [2] and 2.26 µM on Mu-type opioid receptor [7]. In assay [10], this compound returned an inhibition of 36%.
On to `C[C@H]1CN(Cc2ccccc2)CCN1C(c1ccc(C(C)(C)C)cc1)c1cccc(O)c1` (stereo partly drawn), for which, in assay [5], the inhibition was 0%. Further, the IC50 on Mu-type opioid receptor [1] came to 3.3 µM; in assay [2], 0.011 µM; at Mu-type opioid receptor [7], 0.29 µM.
